Reference: patent US4697022A, “Process for the preparation of optically-active carbazole derivatives, new R- and S-carbazole derivatives and pharmaceutical compositions containing these compounds” (Boehringer Mannheim GmbH, priority 1983, dated 1987)

Key:
[1] = tested on: blood vessels (blood pressure); experiment: vasodilation: direct blood pressure lowering after a single i.v. administration in awake spontaneously hypertonic rats (SHR); assay type: in vivo, rat (spontaneously hypertonic; conditions: for ED (30 mmHg): Rattus norvegicus, iv, dosage for lowering of blood pressure by 30 mm.Hg, awake SHR, single i.v. administration, purity >99.4%
Procedure: (measured as direct blood pressure lowering after a single administration)
In awake, spontaneously hypertonic rats (SHR), catheters were implanted in the arteria femoralis and the vena jugularis. Via the veins, there were injected appropriate dosages of the enantiomers (R-carvedilol and S-carvedilol in dosages of 0.03; 0.1; 0.3; 1.0 and 3 mg/kg. i.v.) and the arterial blood pressure lowering was determined via the arterial pressure catheter (as an expression of the vasodilation). As a measure of the antihypertensive effect, there were calculated the dosages for lowering of the blood pressure by 30 mm.Hg.

[2] = tested on: isoprenaline tachycardia; experiment: β-blocking action: inhibition of isoprenaline tachycardia in awake rabbits; assay type: in vivo, rabbit; conditions: for ED50: Oryctolagus cuniculus, iv, 50% inhibiting dosage, isoprenaline tachycardia, purity >99.4%, read-out: β-blockade ED50%; for β-blocking properties: in words

## COc1ccccc1OCCNC[C@@H](O)COc1cccc2[nH]c3ccccc3c12 [R-carvedilol, R-(+)-(1-Carbazol-4-yloxy)-3-[2-(2-methoxyphenoxy)]ethylaminopropan-2-ol]
[1]
  ED (30 mmHg): 2.96 mg/kg
[1]; ratio of ED-30mmHg R-carvedilol to S-carvedilol, i.v., SHR
  vasodilation: difference factor of the dosages of R- and S-carvedilol: 11
[2]; awake rabbits, i.v.
  ED50: 3.98 mg/kg
[2]; ratio of ED50% R-carvedilol to S-carvedilol, i.v., awake rabbits
  β-blockade: difference factor of the dosages of R- and S-carvedilol: 160

## COc1ccccc1OCCNC[C@H](O)COc1cccc2[nH]c3ccccc3c12 [S-carvedilol, S-(-)-(1-Carbazol-4-yloxy)-3-[2-(2-methoxyphenoxy)]ethylaminopropan-2-ol]
[1]
  ED (30 mmHg): 0.27 mg/kg
[1]; S-carvedilol, ED-30mmHg vs β-blockade ED50%
  dosage for blood pressure lowering of 30 mm.Hg in comparison to β-blockade (times higher): about 10 times
[2]; awake rabbits, i.v.
  ED50: 0.025 mg/kg
[2]
  β-blocking properties: practically only S-carvedilol can be regarded as being a β-blocker
[2]; listed as Example 8
  β-blocking properties: displays β-blocking properties
